This note sets out measurements from US20240150293A1, “SPIROCYCLOHEXANE DERIVATIVES, PHARMACEUTICAL COMPOSITIONS CONTAINING THEM AND THEIR USES AS ANTI-APOPTOTIC INHIBITORS” (LES LABORATOIRES SERVIER, priority 2021, published 2024).

The structures appear in SMILES notation.

The assay deals with Mcl-1 protein (UniProtKB Q07820) (Homo sapiens (Human), UniProt Q07820). Description: Inhibition of Mcl-1 by the fluorescence polarisation assay (Example A, Method A). In kind it is binding. As to conditions: fluorescence polarization assay. An outline of the steps: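 Protein (5 nM) and fluorescein-tagged peptide tracer (1 nM) incubated with 11-point compound series for 2 h at room temperature in HEPES/NaCl/Tween 20 buffer, pH 7.4, 5% DMSO. Displacement read as decrease in polarisation; IC50 fitted by 4-parameter logistic, converted to Ki (cKi or eKi).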
Sequence of Mcl-1 protein (Q07820 whole entry): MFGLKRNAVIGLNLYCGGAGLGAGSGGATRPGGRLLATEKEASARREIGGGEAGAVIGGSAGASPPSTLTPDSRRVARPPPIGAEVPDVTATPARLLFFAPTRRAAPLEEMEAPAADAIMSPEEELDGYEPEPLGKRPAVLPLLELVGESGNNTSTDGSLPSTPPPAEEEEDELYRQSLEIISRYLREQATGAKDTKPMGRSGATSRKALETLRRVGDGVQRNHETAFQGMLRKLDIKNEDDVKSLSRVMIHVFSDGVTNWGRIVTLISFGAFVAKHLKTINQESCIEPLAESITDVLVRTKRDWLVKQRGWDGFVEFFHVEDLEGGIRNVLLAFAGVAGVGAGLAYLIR
A general note: Polarisation of emitted light reports the rotation of a fluorescent probe.

One may read the Ki as a dissociation constant, usually derived from enzyme kinetics or from competition with a known ligand.

Take `O=C(O)[C@]1(Nc2ccccc2)CC[C@]2(CC1)C(CCCOc1ccnc3ccsc13)=Cc1ccccc12` [Example 455, (1r,4r)-4-anilino-2′-{3-[(thieno[3,2-b]pyridin-7-yl)oxy]propyl}spiro[cyclohexane-1,1′-indene]-4-carboxylic acid]: the Ki stood at 1030 nM. The same measure for `Cc1cncnc1OCCCC1=Cc2ccccc2[C@]12CC[C@@](Nc1cccc(Br)c1)(C(=O)O)CC2` [Example 456, (1r,4r)-4-(3-bromoanilino)-2′-{3-[(5-methylpyrimidin-4-yl)oxy]propyl}spiro[cyclohexane-1,1′-indene]-4-carboxylic acid]: 104 nM. For `Cc1cc(OCCCC2Cc3ccccc3[C@]23CC[C@@](Nc2cccc(Cl)c2)(C(=O)O)CC3)ccn1` (stereo partly drawn) [Example 457, (1r,4r)-4-(3-chloroanilino)-2′-{3-[(2-methylpyridin-4-yl)oxy]propyl}-2′,3′-dihydrospiro[cyclohexane-1,1′-indene]-4-carboxylic acid], the Ki came to 129 nM. Turning to `Cc1c[nH]c2nccc(OCCCC3Cc4ccccc4[C@]34CC[C@@](Nc3cccc(Cl)c3)(C(=O)O)CC4)c12` (stereo partly drawn) [Example 458, (1r,4r)-4-(3-chloroanilino)-2′-{3-[(3-methyl-1H-pyrrolo[2,3-b]pyridin-4-yl)oxy]propyl}-2′,3′-dihydrospiro[cyclohexane-1,1′-indene]-4-carboxylic acid], the Ki was determined as 110 nM.

On to `O=C(O)C1(Nc2cccc(Cl)c2)CCC2(CC1)c1ccccc1CC2CCCOc1ncnc2c1CCCC2` (stereo not drawn) [Example 460, (1r,4r)-4-(3-chloroanilino)-2′-{3-[(5,6,7,8-tetrahydroquinazolin-4-yl)oxy]propyl}-2′,3′-dihydrospiro[cyclohexane-1,1′-indene]-4-carboxylic acid], for which the Ki is 159 nM. For the compound `CC1(C)CCc2ncnc(OCCCC3Cc4ccccc4[C@]34CC[C@@](Nc3cccc(Cl)c3)(C(=O)O)CC4)c21` (stereo partly drawn) [Example 466, (1r,4r)-4-(3-chloroanilino)-2′-{3-[(5,5-dimethyl-6,7-dihydro-5H-cyclopenta[d]pyrimidin-4-yl)oxy]propyl}-2′,3′-dihydrospiro[cyclohexane-1,1′-indene]-4-carboxylic acid], the Ki amounted to 56.6 nM. With `O=C(O)[C@]1(Nc2cccc(Cl)c2)CC[C@@]2(CC1)c1ccccc1CC2CCCOC1CCOCC1` (stereo partly drawn) [Example 467, (1r,4r)-4-(3-chloroanilino)-2′-{3-[(oxan-4-yl)oxy]propyl}-2′,3′-dihydrospiro[cyclohexane-1,1′-indene]-4-carboxylic acid], the Ki came to 746 nM. On to `Cc1nc2c(c(OCCCC3Cc4ccccc4[C@]34CC[C@@](Nc3cccc(Cl)c3)(C(=O)O)CC4)n1)C(C)CC2` (stereo partly drawn) [Example 468, (1r,4r)-4-(3-chloroanilino)-2′-{3-[(2,5-dimethyl-6,7-dihydro-5H-cyclopenta[d]pyrimidin-4-yl)oxy]propyl}-2′,3′-dihydrospiro[cyclohexane-1,1′-indene]-4-carboxylic acid], for which the Ki was 234 nM. Then `O=C(O)[C@]1(Nc2cccc(Cl)c2)CC[C@@]2(CC1)c1ccccc1CC2CCCOc1cccc2[nH]cnc12` (stereo partly drawn) [Example 469, (1r,4r)-2′-{3-[(1H-benzimidazol-4-yl)oxy]propyl}-4-(3-chloroanilino)-2′,3′-dihydrospiro[cyclohexane-1,1′-indene]-4-carboxylic acid], with 324 nM.

As to `O=C(O)[C@]1(Nc2cccc(Cl)c2)CC[C@@]2(CC1)c1ccccc1CC2CCCOc1cccc2c1CCN2` (stereo partly drawn) [Example 470, (1r,4r)-4-(3-chloroanilino)-2′-{3-[(2,3-dihydro-1H-indol-4-yl)oxy]propyl}-2′,3′-dihydrospiro[cyclohexane-1,1′-indene]-4-carboxylic acid], the Ki was 184 nM. Then `O=C(O)[C@]1(Nc2cccc(Cl)c2)CC[C@@]2(CC1)c1ccccc1CC2CCCOC1CCOc2ccccc21` (stereo partly drawn) [Example 471, (1r,4r)-4-(3-chloroanilino)-2′-{3-[(3,4-dihydro-2H-1-benzopyran-4-yl)oxy]propyl}-2′,3′-dihydrospiro[cyclohexane-1,1′-indene]-4-carboxylic acid], with 620 nM; and `O=C(O)[C@]1(Nc2cccc(Cl)c2)CC[C@@]2(CC1)c1ccccc1CC2CCCOc1ccnc2c1CCCC2F` (stereo partly drawn) [Example 473, (1r,4r)-4-(3-chloroanilino)-2′-{3-[(8-fluoro-5,6,7,8-tetrahydroquinolin-4-yl)oxy]propyl}-2′,3′-dihydrospiro[cyclohexane-1,1′-indene]-4-carboxylic acid], with 81.9 nM; and `O=C(O)[C@]1(Nc2cccc(Cl)c2)CC[C@@]2(CC1)c1ccccc1CC2CCCOc1ccnc2c1CCCC2O` (stereo partly drawn) [Example 474, (1r,4r)-4-(3-chloroanilino)-2′-{3-[(8-hydroxy-5,6,7,8-tetrahydroquinolin-4-yl)oxy]propyl}-2′,3′-dihydrospiro[cyclohexane-1,1′-indene]-4-carboxylic acid], with 96 nM. In the case of `O=C(O)[C@]1(Nc2cccc(Cl)c2)CC[C@@]2(CC1)c1ccccc1CC2CCCOc1ccnc2c1CCC2O` (stereo partly drawn) [Example 475, (1r,4r)-4-(3-chloroanilino)-2′-{3-[(7-hydroxy-6,7-dihydro-5H-cyclopenta[b]pyridin-4-yl)oxy]propyl}-2′,3′-dihydrospiro[cyclohexane-1,1′-indene]-4-carboxylic acid], the Ki is 99.2 nM.

As for `O=C(O)[C@]1(Nc2cccc(Cl)c2)CC[C@@]2(CC1)c1ccccc1CC2CCCOc1ccnc2c1CCC2F` (stereo partly drawn) [Example 476, (1r,4r)-4-(3-chloroanilino)-2′-{3-[(7-fluoro-6,7-dihydro-5H-cyclopenta[b]pyridin-4-yl)oxy]propyl}-2′,3′-dihydrospiro[cyclohexane-1,1′-indene]-4-carboxylic acid], the Ki was found to be 169 nM. As to `CC1CCc2nccc(OCCCC3Cc4ccccc4[C@]34CC[C@@](Nc3ccccc3)(C(=O)O)CC4)c21` (stereo partly drawn) [Example 477, (1r,4r)-4-anilino-2′-{3-[(5-methyl-6,7-dihydro-5H-cyclopenta[b]pyridin-4-yl)oxy]propyl}-2′,3′-dihydrospiro[cyclohexane-1,1′-indene]-4-carboxylic acid], the Ki was 236 nM.

Turning to `CC1CCc2nccc(OCCCC3Cc4ccccc4[C@]34CC[C@@](Nc3cccc(Cl)c3)(C(=O)O)CC4)c21` (stereo partly drawn) [Example 478, (1r,4r)-4-(3-chloroanilino)-2′-{3-[(5-methyl-6,7-dihydro-5H-cyclopenta[b]pyridin-4-yl)oxy]propyl}-2′,3′-dihydrospiro[cyclohexane-1,1′-indene]-4-carboxylic acid], the Ki was 29.7 nM. Take `Cn1ccc(OCCCC2Cc3ccccc3[C@]23CC[C@@](Nc2cccc(Cl)c2)(C(=O)O)CC3)cc1=O` (stereo partly drawn) [Example 479, (1r,4r)-4-(3-chloroanilino)-2′-{3-[(1-methyl-2-oxo-1,2-dihydropyridin-4-yl)oxy]propyl}-2′,3′-dihydrospiro[cyclohexane-1,1′-indene]-4-carboxylic acid]: the Ki is 809 nM. As to `CN1C(=O)Cc2cc(OCCCC3Cc4ccccc4[C@]34CC[C@@](Nc3cccc(Cl)c3)(C(=O)O)CC4)ccc21` (stereo partly drawn) [Example 480, (1r,4r)-4-(3-chloroanilino)-2′-{3-[(1-methyl-2-oxo-2,3-dihydro-1H-indol-5-yl)oxy]propyl}-2′,3′-dihydrospiro[cyclohexane-1,1′-indene]-4-carboxylic acid], the Ki came to 431 nM. As to `O=C(O)[C@]1(Nc2cccc(Cl)c2)CC[C@]2(CC1)C(CC(CO)COc1ccnc3ccsc13)=Cc1ccccc12` (stereo partly drawn) [Example 491, (1r,4r)-4-(3-chloroanilino)-2′-{2-(hydroxymethyl)-3-[(thieno[3,2-b]pyridin-7-yl)oxy]propyl}spiro[cyclohexane-1,1′-indene]-4-carboxylic acid], the Ki is 154 nM. As to `O=C(O)[C@]1(Nc2cccc(Cl)c2)CC[C@]2(CC1)C(CC(COc1ccnc3ccsc13)COc1ccnc3ccsc13)=Cc1ccccc12` [Example 492, (1r,4r)-4-(3-chloroanilino)-2′-(3-[(thieno[3,2-b]pyridin-7-yl)oxy]-2-{[(thieno[3,2-b]pyridin-7-yl)oxy]methyl}propyl)spiro[cyclohexane-1,1′-indene]-4-carboxylic acid], the Ki was 93.7 nM. For `COCC(COC)CC1=Cc2ccccc2[C@]12CC[C@@](Nc1cccc(Cl)c1)(C(=O)O)CC2` [Example 493, (1r,4r)-4-(3-chloroanilino)-2′-[3-methoxy-2-(methoxymethyl)propyl]spiro[cyclohexane-1,1′-indene]-4-carboxylic acid], the Ki is 1780 nM. The same measure for `COCC(F)(F)CC1Cc2ccccc2[C@]12CC[C@@](Nc1cccc(Cl)c1)(C(=O)O)CC2` (stereo partly drawn) [Example 502, (1r,4r)-4-(3-chloroanilino)-2′-(2,2-difluoro-3-methoxypropyl)-2′,3′-dihydrospiro[cyclohexane-1,1′-indene]-4-carboxylic acid]: 77800 nM; for `CC[C@H](COc1cccnc1)C[C@H]1Cc2ccccc2[C@]12CC[C@@](Nc1cccc(Cl)c1)(C(=O)O)CC2` [Example 540, (1r,2′S,4S)-4-(3-chloroanilino)-2′-[(2S)-2-{[(pyridin-3-yl)oxy]methyl}butyl]-2′,3′-dihydrospiro[cyclohexane-1,1′-indene]-4-carboxylic acid]: 185 nM; for `CC[C@H](COc1ccccc1)C[C@H]1Cc2ccccc2[C@]12CC[C@@](Nc1cccc(Cl)c1)(C(=O)O)CC2` [Example 541, (1r,2′S,4S)-4-(3-chloroanilino)-2′-[(2S)-2-(phenoxymethyl)butyl]-2′,3′-dihydrospiro[cyclohexane-1,1′-indene]-4-carboxylic acid]: 1170 nM. `CC[C@H](COc1ccncc1)C[C@H]1Cc2ccccc2[C@]12CC[C@@](Nc1cccc(Cl)c1)(C(=O)O)CC2` [Example 542]: the Ki is 187 nM. As for `C[C@@H](COc1ccccc1)CC1Cc2ccccc2[C@]12CC[C@@](Nc1cccc(Cl)c1)(C(=O)O)CC2` (stereo partly drawn) [Example 567, (1r,4R)-4-(3-chloroanilino)-2′-[(2R)-2-methyl-3-phenoxypropyl]-2′,3′-dihydrospiro[cyclohexane-1,1′-indene]-4-carboxylic acid], the Ki is 155 nM.
